Data reported in PubChem BioAssay AID1259407 (Chemical Carcinogenesis Research Information System (CCRIS), 2018).
The source made the active and inactive calls. The rule behind the calls is not given here.

Tested on: CCRIS mutagenicity, Ames/micronucleus/aberration tests
Assay: CCRIS mutagenicity studies
[1] = Test System: AMES SALMONELLA TYPHIMURIUM, Strain/Indicator: TA98, Metabolic Activation: RAT, LIVER, S-9, AROCLOR 1254, Method: STANDARD PLATE
[2] = Test System: AMES SALMONELLA TYPHIMURIUM, Strain/Indicator: TA100, Metabolic Activation: RAT, LIVER, S-9, AROCLOR 1254, Method: STANDARD PLATE
[3] = Test System: AMES SALMONELLA TYPHIMURIUM, Strain/Indicator: TA97, Metabolic Activation: NONE, Method: PREINCUBATION
[4] = Test System: AMES SALMONELLA TYPHIMURIUM, Strain/Indicator: TA98, Metabolic Activation: NONE, Method: PREINCUBATION
[5] = Test System: AMES SALMONELLA TYPHIMURIUM, Strain/Indicator: TA100, Metabolic Activation: NONE, Method: PREINCUBATION
[6] = Test System: AMES SALMONELLA TYPHIMURIUM, Strain/Indicator: TA98, Metabolic Activation: NONE, Method: STANDARD PLATE
[7] = Test System: AMES SALMONELLA TYPHIMURIUM, Strain/Indicator: TA100, Metabolic Activation: NONE, Method: STANDARD PLATE

Measured: mutagenic call

Clc1c2ccccc2cc2c1ccc1ccccc12
active: [1] active; positive | [2] active; positive | Test System: AMES SALMONELLA TYPHIMURIUM, Strain/Indicator: TA100, Metabolic Activation: RAT, LIVER, S-9, PCB, Method: STANDARD PLATE active; positive

COCCOC(C)=O
inactive: End Point: IN VITRO CHROMOSOMAL ABERRATIONS, Test System: CHO-LB CELLS, Metabolic Activation: NONE inactive; negative | Test System: AMES SALMONELLA TYPHIMURIUM, Strain/Indicator: TA97, Metabolic Activation: HAMSTER, LIVER, S-9, AROCLOR 1254 (10 OR 30%), Method: PREINCUBATION inactive; negative | [3] inactive; negative | Test System: AMES SALMONELLA TYPHIMURIUM, Strain/Indicator: TA97, Metabolic Activation: RAT, LIVER, S-9, AROCLOR 1254 (10 OR 30%), Method: PREINCUBATION inactive; negative | Test System: AMES SALMONELLA TYPHIMURIUM, Strain/Indicator: TA98, Metabolic Activation: HAMSTER, LIVER, S-9, AROCLOR 1254 (10 OR 30%), Method: PREINCUBATION inactive; negative | [4] inactive; negative | Test System: AMES SALMONELLA TYPHIMURIUM, Strain/Indicator: TA98, Metabolic Activation: RAT, LIVER, S-9, AROCLOR 1254 (10 OR 30%), Method: PREINCUBATION inactive; negative | Test System: AMES SALMONELLA TYPHIMURIUM, Strain/Indicator: TA100, Metabolic Activation: HAMSTER, LIVER, S-9, AROCLOR 1254 (10 OR 30%), Method: PREINCUBATION inactive; negative | [5] inactive; negative | Test System: AMES SALMONELLA TYPHIMURIUM, Strain/Indicator: TA100, Metabolic Activation: RAT, LIVER, S-9, AROCLOR 1254 (10 OR 30%), Method: PREINCUBATION inactive; negative | Test System: AMES SALMONELLA TYPHIMURIUM, Strain/Indicator: TA1535, Metabolic Activation: HAMSTER, LIVER, S-9, AROCLOR 1254 (10 OR 30%), Method: PREINCUBATION inactive; negative | Test System: AMES SALMONELLA TYPHIMURIUM, Strain/Indicator: TA1535, Metabolic Activation: NONE, Method: PREINCUBATION inactive; negative | Test System: AMES SALMONELLA TYPHIMURIUM, Strain/Indicator: TA1535, Metabolic Activation: RAT, LIVER, S-9, AROCLOR 1254 (10 OR 30%), Method: PREINCUBATION inactive; negative | Test System: AMES SALMONELLA TYPHIMURIUM, Strain/Indicator: TA1537, Metabolic Activation: HAMSTER, LIVER, S-9, AROCLOR 1254 (30%), Method: PREINCUBATION inactive; negative | Test System: AMES SALMONELLA TYPHIMURIUM, Strain/Indicator: TA1537, Metabolic Activation: NONE, Method: PREINCUBATION inactive; negative | Test System: AMES SALMONELLA TYPHIMURIUM, Strain/Indicator: TA1537, Metabolic Activation: RAT, LIVER, S-9, AROCLOR 1254 (30%), Method: PREINCUBATION inactive; negative
active: End Point: IN VITRO CHROMOSOMAL ABERRATIONS, Test System: CHO-LB CELLS, Metabolic Activation: RAT, LIVER, S-9, AROCLOR 1254 active; positive

CC12CCC=C(C=O)C1(C=O)C2 (configuration not stated)
active: [6] active; positive | [7] active; positive

O=C(O)/C=C\C(=O)O
inactive: [3] inactive; negative | Test System: AMES SALMONELLA TYPHIMURIUM, Strain/Indicator: TA97, Metabolic Activation: RAT, LIVER, S-9, PHENOBARBITAL AND 5,6-BENZOFLAVONE, Method: PREINCUBATION inactive; negative | [4] inactive; negative | [6] inactive; negative | [1] inactive; negative | Test System: AMES SALMONELLA TYPHIMURIUM, Strain/Indicator: TA98, Metabolic Activation: RAT, LIVER, S-9, PHENOBARBITAL AND 5,6-BENZOFLAVONE, Method: PREINCUBATION inactive; negative | [5] inactive; negative | [7] inactive; negative | [2] inactive; negative | Test System: AMES SALMONELLA TYPHIMURIUM, Strain/Indicator: TA100, Metabolic Activation: RAT, LIVER, S-9, PHENOBARBITAL AND 5,6-BENZOFLAVONE, Method: PREINCUBATION inactive; negative | Test System: AMES SALMONELLA TYPHIMURIUM, Strain/Indicator: TA102, Metabolic Activation: NONE, Method: PREINCUBATION inactive; negative | Test System: AMES SALMONELLA TYPHIMURIUM, Strain/Indicator: TA102, Metabolic Activation: RAT, LIVER, S-9, PHENOBARBITAL AND 5,6-BENZOFLAVONE, Method: PREINCUBATION inactive; negative | Test System: AMES SALMONELLA TYPHIMURIUM, Strain/Indicator: TA104, Metabolic Activation: NONE, Method: PREINCUBATION inactive; negative | Test System: AMES SALMONELLA TYPHIMURIUM, Strain/Indicator: TA104, Metabolic Activation: RAT, LIVER, S-9, PHENOBARBITAL AND 5,6-BENZOFLAVONE, Method: PREINCUBATION inactive; negative | Test System: AMES SALMONELLA TYPHIMURIUM, Strain/Indicator: TA1535, Metabolic Activation: NONE, Method: STANDARD PLATE inactive; negative | Test System: AMES SALMONELLA TYPHIMURIUM, Strain/Indicator: TA1535, Metabolic Activation: RAT, LIVER, S-9, AROCLOR 1254, Method: STANDARD PLATE inactive; negative | Test System: AMES SALMONELLA TYPHIMURIUM, Strain/Indicator: TA1537, Metabolic Activation: NONE, Method: STANDARD PLATE inactive; negative | Test System: AMES SALMONELLA TYPHIMURIUM, Strain/Indicator: TA1537, Metabolic Activation: RAT, LIVER, S-9, AROCLOR 1254, Method: STANDARD PLATE inactive; negative | Test System: AMES SALMONELLA TYPHIMURIUM, Strain/Indicator: TA1538, Metabolic Activation: NONE, Method: STANDARD PLATE inactive; negative | Test System: AMES SALMONELLA TYPHIMURIUM, Strain/Indicator: TA1538, Metabolic Activation: RAT, LIVER, S-9, AROCLOR 1254, Method: STANDARD PLATE inactive; negative
